Experimental data from paper PMC12427763 (2025).

Legend:
[1] = test system: c-myb G4 (5'-FAM) (DNA, G4) GGAGGAGGAGGTCACGGAGGAGGAGGAGAAGGAGGAGGAGGA; test: MST; conditions: K+ 100 mM; 50 mM Tris-HCl pH 7.4
[2] = test system: c-myb IM (5'-FAM) (DNA, i motif) TCCTCCTCCTCCTTCTCCTCCTCCTCCGTGACCTCCTCCTCC; test: MST; conditions: K+ 100 mM, 20 mM MES pH 5.5
[3] = test system: 5'-biotin c-myb G4 (DNA, G4) GGAGGAGGAGGTCACGGAGGAGGAGGAGAAGGAGGAGGAGGA; test: SPR; conditions: K+ 100 mM; 50 mM Tris-HCl pH 7.4, 5% DMSO
[4] = test system: 5'-biotin c-myb IM (DNA, i motif) TCCTCCTCCTCCTTCTCCTCCTCCTCCGTGACCTCCTCCTCC; test: SPR; conditions: K+ 100 mM; 20 mM MES pH 5.5, 5% DMSO
[5] = test system: Rb IM (DNA, i motif) GCCGCCCAAAACCCCCCG; test: SPR; conditions: K+ 100 mM; 20 mM MES pH 5.5, 5% DMSO
[6] = test system: Kras IM (5'-FAM) (DNA, i motif) CCTCCCCCTCTTCCCTCTTCCCACACCGCCCT; test: MST; conditions: K+ 100 mM; 20 mM MES pH 5.5
[7] = test system: Kras G4 (5'-FAM) (DNA, G4) AGGGCGGTGTGGGAAGAGGGAAGAGGGGGAGG; test: MST; conditions: K+ 100 mM; 50 mM Tris-HCl pH 7.4
[8] = test system: c-Jun IM (5'-FAM) (DNA, i motif) TAACCCCCTCCCCCTCCCCCCTTTAAT; test: MST; conditions: K+ 100 mM; 20 mM MES pH 5.5
[9] = test system: Ret IM (DNA, i motif) CCCCGCCCCGCCCCGCCCCTA; test: SPR; conditions: K+ 100 mM; 20 mM MES pH 5.5, 5% DMSO
[10] = test system: Rb IM (5'-FAM) (DNA, i motif) GCCGCCCAAAACCCCCCG; test: MST; conditions: K+ 100 mM; 20 mM MES pH 5.5
[11] = test system: Hras G4 (DNA, G4) TTGAGGGTGGGTAGGGTGGGTAAA; test: SPR; conditions: K+ 100 mM; 50 mM Tris-HCl pH 7.4, 5% DMSO
[12] = test system: Kras G4 (DNA, G4) AGGGCGGTGTGGGAAGAGGGAAGAGGGGGAGG; test: SPR; conditions: K+ 100 mM; 50 mM Tris-HCl pH 7.4, 5% DMSO
[13] = test system: HIF-1α IM (5'-FAM) (DNA, i motif) GCCCGAGCGCGCCTCCGCCCTTGCCCGCCCCCTG; test: MST; conditions: K+ 100 mM; 20 mM MES pH 5.5
[14] = test system: Ret IM (5'-FAM) (DNA, i motif) CCCCGCCCCGCCCCGCCCCTA; test: MST; conditions: K+ 100 mM; 20 mM MES pH 5.5
[15] = test system: c-myb G4 (DNA, G4) GGAGGAGGAGGTCACGGAGGAGGAGGAGAAGGAGGAGGAGGA; test: TO displacement, fluorescence; conditions: K+ 100 mM; 50 mM Tris-HCl pH 7.4; tracer thiazole orange 2 μM
[16] = test system: Bcl-2 IM (DNA, i motif) CAGCCCCGCTCCCGCCCCCTTCCTCCCGCGCCCGCCCCT; test: SPR; conditions: K+ 100 mM; 20 mM MES pH 5.5, 5% DMSO
[17] = test system: Bcl-2 G4 (DNA, G4) GGGCGGGCGCGGGAGGAAGGGGGCGGG; test: SPR; conditions: K+ 100 mM; 50 mM Tris-HCl pH 7.4, 5% DMSO
[18] = test system: c-Jun IM (DNA, i motif) TAACCCCCTCCCCCTCCCCCCTTTAAT; test: SPR; conditions: K+ 100 mM; 20 mM MES pH 5.5, 5% DMSO
[19] = test system: c-Jun G4 (DNA, G4) AAGGGGGGAGGGGGAGGGGGTT; test: SPR; conditions: K+ 100 mM; 50 mM Tris-HCl pH 7.4, 5% DMSO
[20] = test system: c-Jun G4 (5'-FAM) (DNA, G4) AAGGGGGGAGGGGGAGGGGGTT; test: MST; conditions: K+ 100 mM; 50 mM Tris-HCl pH 7.4
[21] = test system: c-myb IM (DNA, i motif) TCCTCCTCCTCCTTCTCCTCCTCCTCCGTGACCTCCTCCTCC; test: TO displacement, fluorescence; conditions: K+ 100 mM plus potassium phosphate; BPES pH 5.5, 1 mM EDTA; tracer thiazole orange 2 μM

In the case of O=C1c2cccc3cc(-c4ccc5c(c4)c4ccccc4n5CCN4CCCC4)cc(c23)C(=O)N1CCN1CCCC1, the KD [1] is reported as 1.11 ± 0.52 µM, the KD ([2]; supplement prints 10.39 ± 2.67) is reported as 10.06 ± 2.67 µM and the KD [3] is reported as 3.03 µM. It also gave a KD [4] of 12.90 µM.
Compound O=C1c2cccc3c(-n4cc(-c5ccc6c(c5)c5ccccc5n6CCN5CCCC5)nn4)ccc(c23)C(=O)N1CCN1CCCC1 has a KD [1] of 8.53 ± 3.22 µM, a KD [2] of 2.11 ± 0.71 µM and a KD [3] of 5.15 µM. It also gave a KD [4] of 3.34 µM.
Compound O=C1c2cccc3cc(-c4ccc5c(c4)c4cc(-c6cn(CCN7CCCC7)nn6)ccc4n5CCN4CCCC4)cc(c23)C(=O)N1CCN1CCCC1 has a KD [5] of 7.70 µM, a KD [6] of 20.59 µM and a KD [1] of 1.43 ± 0.64 µM. For the same compound, the KD [7] was 19.90 µM, the KD [8] was 34.42 µM and the KD [9] was 7.71 µM. It also gave a KD [10] of 20.93 µM, a KD [11] of 29.10 µM and a KD [12] of 27.50 µM. The KD [13] was 14.19 µM, the KD [14] was 18.00 µM and the DC50 [15] was 1.0 µM. For the same compound, the KD [16] was 18.50 µM, the KD [2] was 1.04 ± 0.40 µM and the KD [3] was 1.10 µM. The KD [17] was 23.60 µM, the KD [18] was 18.70 µM and the KD [19] was 32.90 µM. For the same compound, the KD [20] was > 50 µM, the KD [4] was 0.58 µM and the DC50 [21] was 0.8 µM.
